Assay [1] deals with male Sprague-Dawley (S-D) rats. Put plainly: Feeding behavior after ICV oleic acid bolus. Format: in vivo, rat. To be noted: for decrease in food intake compared with pre-injection basal levels: SC animals. From the text:
Animals and Experimental Design. Ten week-old male Sprague-Dawley (S-D) rats (Charles River Breeding Laboratories, Inc., Wilmington, Mass.) were housed in individual cages and subjected to a standard light dark cycle (0600-1800/1800-0600). At 14 days before the in vivo studies, all rats received implantations of ICV catheters by stereotaxic surgery as previously described (36). Rats were allowed to recover completely before initiation of all in vivo studies. Animals were fed a standard chow (SC, cat. no. 5001, Purina Mills Ltd, with 59% calories provided by carbohydrate, 28% by protein and 12% by fat, 3.3 kcal/g), a high sucrose (HS; animals were given free access to a 20% sucrose solution in addition to their standard chow diet), or a highly palatable high fat diet (HF, cat. no. 9389; Purina Mills Ltd., with 45% calories provided by carbohydrate, 22% by protein and 33% by fat, 5.32 kcal/g) which was designed by the supplementation of the SC diet with 10% lard. The lard contained 2% myristic acid, 24% palmitic acid, 13% stearic acid, 46% oleic acid, and 12% linoleic acid. The total composition of fats in the HF diet was 5.2% saturated, 6.2% monounsaturated, and 2.7% polyunsaturated fat by weight. The SC diet contained 1%, 1.5%, and 1.6% of saturated, monounsaturated, and polyunsaturated fats by weight, respectively. Five groups of animals ere included in the feeding and metabolic studies (described below) after three days on the following diet regimens (Table 2): 1) SC ad libitum (SC; ˜80 kcal/day); 2) HS ad libitum (HS; ˜95 kcal/day); 3) HF ad libitum (HF140; ˜140 kcal/day); 4) HF calorie restricted (HF55; ˜55 kcal/day); and 5) HF pair-fed to SC(HF80; ˜80 kcal/day). Central Delivery of OA. OA was complexed with the polymer hydroxypropyl-3-cyclodextrin (HPB, CTD Inc). […] OA was solubilized in 45% HPB to a final concentration of 17 mM. The HPB-OA solution was diluted in artificial cerebral spinal fluid (aCSF) to the appropriate concentration used for each ICV injections (30 or 300 nmol/5 μl). HPB alone at a similar concentration as in the OA studies was used in all vehicle control studies. Feeding Behavior Studies. This experimental protocol was designed to examine the acute effect of ICV OA on food intake in three experimental groups fed a standard chow (SC), a high sucrose diet (HS95) and a high fat diet (HF140). SC and HF140 animals were allowed to eat their diets ad libitum. HS animals were given free access to a 20% sucrose solution in addition to the standard chow diet for three days. Following three days of ad libitum feeding in all groups, on study day 0 (FIG. 5a), rats were given an ICV bolus injection of either […] of OA (30 nmol) or vehicle at a rate of 1 μl/min using a gas-tight syringe (Hamilton Corp) one hour before the start of the dark cycle. Food intake was measured at the same time daily for three days post-injection.

The next assay concerns hypothalamic NPY mRNA. Put plainly: Hypothalamic NPY expression after ICV OA (northern blot). Format: in vivo, rat. To be noted: 30 nmol ICV bolus. As to the method: NPY Expression Studies. For analysis of NPY expression, we studied two groups of rats, HF55 and HF140. After three days on the respective diet regimen, ICV Vehicle (10% HPB in aCSF) or ICV OA (30 nmol) was injected as a bolus into the third cerebral ventricle one hour before the start of the dark cycle. Food was withdrawn and hypothalami were harvested 16 hrs following injection. Northern Blot Analysis. Total RNA was isolated from hypothalami and liver with Trizol (Invitrogen Corp., California, USA). NPY, Glc-6-Pase or PEPCK expression was measured by northern blot analysis. Hypothalamic RNA was analyzed using probes for prepro-NPY and β-actin. To assess the effect of ICV OA on the expression of hepatic enzymes, total RNA was isolated from freeze-clamped liver tissues from rats subjected to insulin clamp studies. Glc-6-Pase and PEPCK cDNA were obtained as previously described (Combs et al., 2001; Massillon et al., 1996; 1998). Probes were labeled with [α-^32P] dCTP using a random primer kit (Stratagene). Quantification was performed by scanning densitometry, normalizing for β-actin signal and 18S ribosomal RNA to correct for loading variabilities.

Regarding `CCCCCCCC/C=C\CCCCCCCC(=O)O` [OA, oleic acid], the “decrease in daily food intake” value was 11% in assay [1] (HF140, ICV OA 30 nmol, first day); −2% in assay [1] (HF140, ICV OA 30 nmol, second day); 21% in assay [1] (HS95, ICV OA 30 nmol, first day); 17% in assay [1] (HS95, ICV OA 30 nmol, second day). Also, the “decrease in food intake compared with pre-injection basal levels” value in assay [1] (ICV OA 30 nmol, first day) was 48%; in assay [1] (ICV OA 30 nmol, second day), 52%. Also, the “return to baseline food intake after the OA injection” value in assay [1] (all groups (SC, HS95, HF140)) was found to be 3 days. The “effect on feeding behavior” value in assay [1] (high fat chow) and in assay [1] (high sucrose chow) was “failed to significantly alter feeding behavior” in each case. The molecule also yielded a duration of anorexia in assay [1] (standard chow, ICV OA 30 nmol) of 48 h. The “decrease in food intake” value in assay [1] (standard chow, for 2 days) is on record as roughly 50%. Besides, the “suppression of hypothalamic NPY mRNA expression” value with hypothalamic NPY mRNA (55-kcal/d group, overnight fast) is given as roughly 60%. Moreover, the “decrease in hypothalamic NPY mRNA” value with hypothalamic NPY mRNA (three days of voluntary overfeeding (HF140), fasted) worked out at 28%.

These data come from patent publication US7705016B2, “Regulation of food intake by modulation of long-chain fatty acyl-CoA levels in the hypothalamus” (Albert Einstein College of Medicine of Yeshiva University, priority 2003, dated 2010).
